15 compounds from patent publication EP0770601A1, “PROPENONE DERIVATIVES” (Kyowa Hakko Kogyo Co., Ltd., priority 1995, dated 1996) can be followed below.

The subject of test [1] is HeLa S3 cells. Kind of test: HeLa S3 cell growth inhibition test (neutral red staining). It counts as cell-based. As to conditions: Homo sapiens, 72 hours culture with test compound, neutral red absorbance at 550 nm. The protocol:
Test Example 1: HeLa S3 Cell Growth Inhibition Test
Each 0.1 ml of HeLa S3 cells which had been prepared to 3 x 10^4 cells/ml using a medium consisted of MEM medium, 10% fetal bovine serum and 2 mM glutamine was distributed in each well of 96 well-microtiter plate. HeLa S3 was cultured at 37°C in a CO2 incubator for one night, each 0.05 ml of test compounds which had been appropriately diluted with the culture solution was added thereto and the mixture was cultured at 37°C for 72 hours in a CO2 incubator. Supernatant was removed, each 0.1 ml of the culture solution containing 0.02% neutral red was added to the residue, the mixture was incubated at 37°C for one hour in a CO2 incubator and the cells were stained. Supernatant was removed and the residue was washed once with physiological saline. Then, the pigment was extracted with 0.001 N hydrochloric acid/30% ethanol and the absorbance at 550 nm was measured by a microplatereader. A concentration of the test compound (IC50) at which the growth of cell is inhibited by 50% was calculated by comparing the absorbance of non-treated cells and that of cells treated with a predetermined concentration of the test compound.

The test system of test [2] is P388 mouse leukemia. Kind of test: Effect upon P388 ascites tumor (increased life span). It counts as in vivo. As to conditions: consecutive 5 days from 24 hours after implantation of the tumor, male CDF1 mice. The protocol: Test Example 2: Effect upon P388 Ascites Tumor […] The resultant suspension was administered once 24 hours after implantation of the tumor, or repeatedly for consecutive 5 days from 24 hours after implantation of the tumor. The average survival day (T) in a group was calculated from the survival days of the respective mice in the group administered with the test compound at each dose. On the other hand, the average survival day (C) of a group which was not administered was measured, and the increased life span [ILS (%)] was calculated according to the following equation: [(T - C)/C] x 100 (%) [formula]

As usually defined, the IC50 is the concentration that inhibits the measured activity by half. A high value points to weaker potency. `CCOc1cc(C(=O)C(C)=Cc2c[nH]c3ccccc23)cc(OCC)c1OCC` [Compound 4, 3-(Indol-3-yl)-2-methyl-1-(3,4,5-triethoxyphenyl)-2-propen-1-one] displayed a half-maximal inhibitory concentration (IC50) in test [1] of 22 nM.

`COc1cc(C(=O)C(C)=Cc2c[nH]c3ccccc23)cc(Br)c1OC` [Compound 10, 1-(3-Bromo-4-dimethoxyphenyl)-3-(indol-3-yl)-2-methyl-2-propen-1-one] displayed an IC50 in test [1] of 6.6 nM. On the same count and under the same terms, next, `COc1cc(C(=O)C(C)=Cc2c[nH]c3cc(C)ccc23)cc2c1OCO2` [Compound 12, 1-(3-Methoxy-4,5-methylenedioxyphenyl)-2-methyl-3-(6-methylindol-3-yl)-2-propen-1-one]: 2.3 nM. The compound `CCCCOc1c(OC)cc(C(=O)C(C)=Cc2c[nH]c3cc(C)ccc23)cc1OC` [Compound 20, 1-(4-Buthoxy-3,5-dimethoxyphenyl)-2-methyl-3-(6-methylindol-3-yl)-2-propen-1-one] gave an IC50 in test [1] of 6.1 nM. `CCOc1c(OC)cc(C(=O)C(C)=Cc2c[nH]c3cc(CC)ccc23)cc1OC` [Compound 16, 1-(4-Ethoxy-3,5-dimethoxyphenyl)-3-(6-ethylindol-3-yl)-2-methyl-2-propen-1-one] returned an IC50 in test [1] of 6.2 nM. As to `CCOc1c(OC)cc(C(=O)C(C)=Cc2c[nH]c3ccccc23)cc1OC` [Compound 5, 1-(4-Ethoxy-3,5-dimethoxyphenyl)-3-(indol-3-yl)-2-methyl-2-propen-1-one], the IC50 in test [1] is 2.5 nM. Besides, the “ILS (%) [Dose (mg/kg)] five consec. admin.” value (from here on “ILS (%)”) in test [2] (dose 3.1 mg/kg) is on record as 41 ( 3.1) %. In test [1], `COc1cc(C(=O)C(C)=Cc2c[nH]c3cc(C)ccc23)cc(OC)c1OCC(C)C` [Compound 15, 1-(4-Isobutyloxy-3,5-dimethoxyphenyl)-2-methyl-3-(6-methylindol-3-yl)-2-methyl-2-propen-1-one] showed a concentration for half-maximal inhibition (IC50) of 18 nM. `COc1cc(C(=O)C(C)=Cc2c[nH]c3ccccc23)cc(OC)c1OCC(C)C` [Compound 6, 3-(Indol-3-yl)-1-(4-isobutyloxy-3,5-dimethoxyphenyl)-2-methyl-2-propen-1-one] displayed a half-maximal inhibitory concentration (IC50) in test [1] of 9.4 nM. Moreover, the “ILS (%)” value in test [2] (dose 3.1 mg/kg) was 43 ( 3.1) %. With `CCOc1c(OC)cc(C(=O)C(C)=Cc2c[nH]c3cc(Cl)ccc23)cc1OC` [Compound 18, 3-(6-Chloroindol-3-yl)-1-(4-ethoxy-3,5-dimethoxyphenyl)-2-methyl-2-propen-1-one], the IC50 in test [1] is 6.3 nM. On the same count and under the same terms, the same measure for `CCOc1c(OC)cc(C(=O)C(C)=Cc2c[nH]c3cc(C)ccc23)cc1OC` [Compound 11, 1-(4-Ethoxy-3,5-dimethoxyphenyl)-2-methyl-3-(6-methylindol-3-yl)-2-propen-1-one]: 6.7 nM; for `CCOc1cc(C(=O)C(C)=Cc2c[nH]c3ccccc23)cc(OC)c1OC` [Compound 9, 1-(5-Ethoxy-3,4-dimethoxyphenyl)-3-(indol-3-yl)-2-methyl-2-propen-1-one]: 3.2 nM. As to `CCCOc1c(OC)cc(C(=O)C(C)=Cc2c[nH]c3cc(C)ccc23)cc1OC` [Compound 19, 1-(3,5-Dimethoxy-4-propoxyphenyl)-2-methyl-3-(6-methylindol-3-yl)-2-propen-1-one], it took 5.2 nM to reach half-maximal inhibition in test [1] (IC50). Turning to `COc1cc(C(=O)C(C)=Cc2c[nH]c3ccccc23)cc2c1OCO2` [Compound 8, 3-(Indol-3-yl)-1-(3-methoxy-4,5-methylenedioxyphenyl)-2-methyl-2-propen-1-one], the IC50 in test [1] stood at 6.1 nM. Besides, the “ILS (%)” value in test [2] (dose 6.3 mg/kg) is listed as 50 ( 6.3) %. `COc1ccc(C(=O)C(C)=Cc2c[nH]c3ccccc23)c(OC)c1OC` [Compound 24, 3-(Indol-3-yl)-2-methyl-1-(2,3,4-trimethoxyphenyl)-2-propen-1-one]: the IC50 in test [1] stood at 22 nM. For `CCc1c(OC)cc(C(=O)C(C)=Cc2c[nH]c3ccccc23)cc1OC` [Compound 7, 1-(4-Ethyl-3-dimethoxyphenyl)-3-(indol-3-yl)-2-methyl-2-propen-1-one], in test [1], inhibition was half-maximal at 64 nM (IC50). The “ILS (%)” value in test [2] (dose 25 mg/kg) was 40 ( 25) %.
